The test system of this assay is murine allantois. In words: Allantois explant culture: de novo vascular development, immunolabeling and confocal analysis. The assay is classed as cell-based, mouse. Here is the method: Allantoides of 7.5dpc embryos were excised, washed in EPBS (4° C.) and then pipetted into Nunc 4 chambered culture slides (Fisher Scientific Co., Suwanee, Ga.) containing 0.4 ml of DMEM, 10% Fetal Bovine Serum, and 1% Penicillin Streptomycin. Explants were cultured at 37° C. in a 5% CO2 incubator for 12-20 hours and then fixed and permeabilized as described above. The explants were blocked in 3% BSA/PBSA 12-18 hrs, exposed to PECAM antibodies (1.5 hours, 26° C.), washed 3×40 minutes in PBSA, incubated in appropriate secondary antibodies (1.5 hours, 26° C.), washed in PBSA 3×30 minutes, and mounted as described above.
Embryos were analyzed using a Bio-Rad MRC 1024 Laser Scanning Confocal Microscope (Bio-Rad Microscopy Division, Cambridge, Mass.). Optical sectioning along the dorsoventral axis (Z-axis) was performed and the images collapsed into a single focal plane using manufacturer's software. Differential Interference Contrast (DIC) images were generated using a research grade Leitz™ photomicroscope equipped with a Photometrics™ (Tucson, Ariz.) Quantix CCD camera. Images were processed using NIH Image 1.62 software (NIH, Bethesda, Md.) and Adobe Photoshop 5.0 (Adobe Systems, Inc., San Jose, Calif.). […]

Turning to VEGF, the “vascular pattern (PECAM immunolabeling)” value (7.0 dpc allantois cultured 24 hours with VEGF 2 μg/ml (FIG. 3c)) is “overall sinusoidal vascular pattern”. The vascular phenotype result (allantois cultures, recombinant VEGF 2 μg/ml, 24 hr) is “hyperfused vascular phenotype”.

The record behind these values is patent US20020172935A1, “Methods of screening for compounds that modulate blood vessel formation from circulating endothelial cell precursors” (priority 2000, published 2002).
